What all share (type): cell-based
Experiment [1] addresses T1, human somatostatin receptor subtype 2 (Homo sapiens, UniProt P30874).
T1 construct: expressed in transfected cells
Put plainly: Functional cAMP assay for SSTR2 agonists (HTRF) in CHO-K1 cells. The note with it: CHO-K1 cells stably expressing human SST2, 20 min. The method in brief:
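Agonism scored as loss of NKH477 (1.6 μM)-driven cAMP, with IBMX present, after 20 min, 37° C. exposure of stably transfected CHO-K1 cells to compound dilutions (typically 0-10,000 nM). Lysates read by time-resolved FRET; cAMP interpolated from standard curve and EC50 derived.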

Experiment [2] deals with T2, SST2 (Homo sapiens, UniProt P30874).
T2 construct: host or cells: PathHunter CHO-K1 SST2 cells
Description: PathHunter CHO-K1 SST2 internalization assay. The note with it: PathHunter CHO-K1 SST2, 90 min. An outline of the steps:
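IC50 comes from four-parameter curves on background-corrected duplicates of Beta-Glo luminescence, read after 60 min at room temperature in the dark. Before that, CHO-K1 SST2 internalization cells (48 h post-seeding) received SMDC as eleven threefold dilutions, 10 uM highest final, for 90 min at 37 C.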

In experiment [3] the test system is NCI-H524 (ATCC) human small cell lung cancer cells. The method in brief: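 CellTiter-Glo luminescence after a 2 h SMDC pulse (top dose 1 uM, 2-fold dilutions, 11 points), medium wash, then 70 h recovery. Cells were seeded at 5,000/well and dosed 24 h later. % inhibition vs control gave IC50 via four-parameter fit.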
Setting [4] is: 2 h treatment, washout, additional 70 h, read-out: H524 EC50.

Where two headings read alike, the source gives them in different places. Starred links: 1 amine or outer side, 2 acyl side, 3 side chain; linkers in the order of their positions; H or OH if unused. Non-standard residues stand in square brackets, D forms with d. Residues, ends and D or L forms follow the SMILES beside them. *: point of attachment. X1 = Cc1cc(F)cc(-c2cnc(NCCNC(=O)CCOCCC(=O)*)c(-c3nc4ccc(Cl)cc4[nH]3)c2N2CCC(N)CC2)c1; X3 = Cc1cc(F)cc(-c2cnc(NCCN*)c(-c3nc4ccc(Cl)cc4[nH]3)c2N2CCC(N)CC2)c1; Dolaproine = CO[C@@H]([C@@H]1CCCN1)[C@@H](C)C(=O)O; Dil = CC[C@H](C)[C@H](NC)[C@@H](CC(=O)O)OC; PABC = O=C(OCc1ccc(N[*:1])cc1)[*:2]; Glutaryl = O=C(CCCC(=O)[*:2])[*:1]; X2 = C[C@@H](N*)[C@@H](O)c1ccccc1; dCya = N[C@H](CS(=O)(=O)O)C(=O)O; Cit = NC(=O)NCCC[C@H](N)C(=O)O; NMeV = CN[C@H](C(=O)O)C(C)C; Sar = CNCC(=O)O

As a reminder, the EC50 is the concentration at which the effect is half-maximal.

T1 sequence (P30874 whole entry): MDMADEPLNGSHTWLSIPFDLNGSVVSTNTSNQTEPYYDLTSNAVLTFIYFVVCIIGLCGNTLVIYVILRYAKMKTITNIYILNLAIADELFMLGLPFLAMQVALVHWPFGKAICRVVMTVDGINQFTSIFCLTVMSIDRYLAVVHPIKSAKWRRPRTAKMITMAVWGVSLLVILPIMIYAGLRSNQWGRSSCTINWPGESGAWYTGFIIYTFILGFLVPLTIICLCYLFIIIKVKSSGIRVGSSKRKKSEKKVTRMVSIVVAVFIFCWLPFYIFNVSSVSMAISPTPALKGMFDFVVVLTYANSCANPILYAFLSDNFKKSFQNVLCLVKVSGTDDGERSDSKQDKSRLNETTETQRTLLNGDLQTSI
T2 sequence (P30874 whole entry): as above

Turning to `CC[C@H](C)[C@@H]([C@@H](CC(=O)N1CCC[C@H]1[C@H](OC)[C@@H](C)C(=O)N[C@H](C)[C@@H](O)c1ccccc1)OC)N(C)C(=O)[C@@H](NC(=O)[C@H](C(C)C)N(C)C(=O)OCc1ccc(NC(=O)[C@H](C)NC(=O)[C@@H](NC(=O)[C@H](CCC(=O)O)NC(=O)CCOCCC(=O)NCCNc2ncc(-c3cc(C)cc(F)c3)c(N3CCC(N)CC3)c2-c2nc3ccc(Cl)cc3[nH]2)C(C)C)c(O[C@@H]2O[C@H](C(=O)O)[C@@H](O)[C@H](O)[C@H]2O)c1)C(C)C` [Compound 145], the EC50 in experiment [1] (read-out: hSST2 cAMP Avg EC50) is 0.25 nM; in experiment [2] (read-out: Internalization EC50), 7.9 nM; in experiment [3] (2 h), 150 nM.
The like results for `CC[C@H](C)[C@@H]([C@@H](CC(=O)N1CCC[C@H]1[C@H](OC)[C@@H](C)C(=O)N[C@H](C)[C@@H](O)c1ccccc1)OC)N(C)C(=O)[C@@H](NC(=O)[C@H](C(C)C)N(C)C(=O)OCc1ccc(NC(=O)[C@H](C)NC(=O)[C@@H](NC(=O)CCOCCC(=O)N(C)CCNc2ncc(-c3cc(C)cc(F)c3)c(N3CCC(N)CC3)c2-c2nc3ccc(Cl)cc3[nH]2)C(C)C)c(O[C@@H]2O[C@H](C(=O)O)[C@@H](O)[C@H](O)[C@H]2O)c1)C(C)C` [Compound 153] were, in that order, 0.51 nM, 14 nM and 98 nM.
The like results for `CC[C@H](C)[C@@H]([C@@H](CC(=O)N1CCC[C@H]1[C@H](OC)[C@@H](C)C(=O)N[C@H](C)[C@@H](O)c1ccccc1)OC)N(C)C(=O)[C@@H](NC(=O)[C@H](C(C)C)N(C)C(=O)OCc1ccc(NC(=O)[C@H](CCCNC(N)=O)NC(=O)[C@@H](NC(=O)[C@H](CS(=O)(=O)O)NC(=O)CCOCCOCCOCCOCCC(=O)NCCNc2ncc(-c3cc(C)cc(F)c3)c(N3CCC(N)CC3)c2-c2nc3ccc(Cl)cc3[nH]2)C(C)C)cc1C(=O)NCCN)C(C)C` [Compound 100] were, in that order, 0.14 nM, 3.3 nM and 6.4 nM.
On the same counts, the results for `COc1cc2cc(c1Cl)N(C)C(=O)C[C@H](OC(=O)[C@H](C)N(C)C(=O)CCSSCCNC(=O)CCOCCNC(=O)C[C@@H](N)C(=O)NCCNc1ncc(-c3cc(C)cc(F)c3)c(N3CCC(N)CC3)c1-c1nc3ccc(Cl)cc3[nH]1)[C@]1(C)O[C@H]1[C@H](C)[C@@H]1C[C@@](O)(NC(=O)O1)[C@H](OC)/C=C/C=C(\C)C2` [Compound 77] are 0.21 nM, 5.2 nM and 17 nM.
As to `CC[C@H](C)[C@@H]([C@@H](CC(=O)N1CCC[C@H]1[C@H](OC)[C@@H](C)C(=O)N[C@H](C)[C@@H](O)c1ccccc1)OC)N(C)C(=O)[C@@H](NC(=O)[C@H](C(C)C)N(C)C(=O)OCc1ccc(NC(=O)[C@H](CCCNC(N)=O)NC(=O)[C@@H](NC(=O)[C@@H](CS(=O)(=O)O)NC(=O)CCOCCC(=O)NCCNc2ncc(-c3cc(C)cc(F)c3)c(N3CCC(N)CC3)c2-c2nc3ccc(Cl)cc3[nH]2)C(C)C)cc1)C(C)C` [Compound 104] (X1-[dCya]V[Cit][PABC][NMeV]V[Dil][Dolaproine]-X2), the EC50 in experiment [1] (read-out: hSST2 cAMP Avg EC50) was found to be 0.062 nM; in experiment [2] (read-out: Internalization EC50), 2.8 nM; in experiment [3] (2 h), 24 nM.
The like results for `CC[C@H](C)[C@@H]([C@@H](CC(=O)N1CCC[C@H]1[C@H](OC)[C@@H](C)C(=O)N[C@H](C)[C@@H](O)c1ccccc1)OC)N(C)C(=O)[C@@H](NC(=O)[C@H](C(C)C)N(C)C(=O)OCc1ccc(NC(=O)[C@H](CCCNC(N)=O)NC(=O)[C@@H](NC(=O)CCOCCNCCNc2ncc(-c3cc(C)cc(F)c3)c(N3CCC(N)CC3)c2-c2nc3ccc(Cl)cc3[nH]2)C(C)C)cc1)C(C)C` [Compound 84] were, in that order, 0.51 nM, 9.7 nM and 24 nM.
The like results for `CCC(C)C(C(CC(=O)N1CCCC1C(OC)C(C)C(=O)NC(C)C(O)c1ccccc1)OC)N(C)C(=O)C(NC(=O)C(C(C)C)N(C)C(=O)OCc1ccc(NC(=O)[C@H](CCCNC(N)=O)NC(=O)[C@@H](NC(=O)CCOCCC(=O)NCCNc2ncc(-c3cc(C)cc(F)c3)c(N3CCC(N)CC3)c2-c2nc3ccc(C(N)=O)cc3[nH]2)C(C)C)cc1)C(C)C` (stereo in doubt) [Compound 28] were, in that order, 2 nM, 704 nM and 1290 nM.
Regarding `CC[C@H](C)[C@@H]([C@@H](CC(=O)N1CCC[C@H]1[C@H](OC)[C@@H](C)C(=O)N[C@H](C)[C@@H](O)c1ccccc1)OC)N(C)C(=O)[C@@H](NC(=O)[C@H](C(C)C)N(C)C(=O)OCc1ccc(NC(=O)[C@H](CCCNC(N)=O)NC(=O)[C@@H](NC(=O)CCCC(=O)N(C)CC(=O)N(C)CC(=O)N(C)CC(=O)NCCNc2ncc(-c3cc(C)cc(F)c3)c(N3CCC(N)CC3)c2-c2nc3ccc(Cl)cc3[nH]2)C(C)C)cc1)C(C)C` [Compound 96] ({X3-Sar-Sar-Sar-Glutaryl}-V[Cit][PABC][NMeV]V[Dil][Dolaproine]-X2), the EC50 in experiment [1] (read-out: hSST2 cAMP Avg EC50) was 0.47 nM; in experiment [2] (read-out: Internalization EC50), 4.9 nM; in experiment [3] (2 h) it was 21 nM.
The like results for `CC[C@H](C)[C@@H]([C@@H](CC(=O)N1CCC[C@H]1[C@H](OC)[C@@H](C)C(=O)N[C@H](C)[C@@H](O)c1ccccc1)OC)N(C)C(=O)[C@@H](NC(=O)[C@H](C(C)C)N(C)C(=O)OCc1ccc(NC(=O)[C@H](C)NC(=O)[C@@H](NC(=O)CCOCCOCCOCCOCCC(=O)NCCNc2ncc(-c3cc(C)cc(F)c3)c(N3CCC(N)CC3)c2-c2nc3ccc(Cl)cc3[nH]2)C(C)C)c(O[C@@H]2O[C@H](C(=O)O)[C@@H](O)[C@H](O)[C@H]2O)c1)C(C)C` [Compound 150] were, in that order, 0.18 nM, 5.6 nM and 9.3 nM.
On to `CC[C@H](C)[C@@H]([C@@H](CC(=O)N1CCC[C@H]1[C@H](OC)[C@@H](C)C(=O)N[C@H](C)[C@@H](O)c1ccccc1)OC)N(C)C(=O)[C@@H](NC(=O)[C@H](C(C)C)N(C)C(=O)OCc1ccc(NC(=O)[C@H](CCCNC(N)=O)NC(=O)[C@@H](NC(=O)[C@H](CCC(=O)O)NC(=O)CCOCCC(=O)NCCNc2ncc(-c3cc(C)cc(F)c3)c(N3CCC(N)CC3)c2-c2nc3ccc(Cl)cc3[nH]2)C(C)C)cc1C(=O)NC)C(C)C` [Compound 51], for which the results for the concentration giving a half-maximal response (EC50) in experiment [1] (read-out: hSST2 cAMP Avg EC50), in experiment [2] (read-out: Internalization EC50) and in experiment [3] (2 h) were 0.22 nM, 6.3 nM and 130 nM, respectively.
With `CC[C@@]1(O)C(=O)OCc2c1cc1n(c2=O)Cc2c-1nc1cc(F)c(C)c3c1c2[C@@H](NC(=O)OCc1ccc(NC(=O)[C@H](CCCNC(N)=O)NC(=O)[C@@H](NC(=O)[C@H](CCC(=O)O)NC(=O)CCOCCC(=O)NCCNc2ncc(-c4cc(C)cc(F)c4)c(N4CCC(N)CC4)c2-c2nc4ccc(Cl)cc4[nH]2)C(C)C)cc1)CC3` [Compound 71], the EC50 in experiment [1] (hSST2 cAMP Avg EC50 (nM)) amounted to 0.29 nM; in experiment [2] (Internalization EC50 (nM)), 1.6 nM; in experiment [3] (setting [4]) it was 270 nM.
The like results for `CC[C@@]1(O)C(=O)OCc2c1cc1n(c2=O)Cc2c-1nc1cc(F)c(C)c3c1c2[C@@H](NC(=O)OCc1ccc(NC(=O)[C@H](CCCNC(N)=O)NC(=O)[C@@H](NC(=O)CCOCCC(=O)NCCNc2ncc(-c4cc(C)cc(F)c4)c(N4CCC(N)CC4)c2-c2nc4ccc(Cl)cc4[nH]2)C(C)C)c(O[C@@H]2O[C@H](C(=O)O)[C@@H](O)[C@H](O)[C@H]2O)c1)CC3` [Compound 126] were, in that order, 0.29 nM, 3.4 nM and 100 nM.
`CC[C@H](C)[C@@H]([C@@H](CC(=O)N1CCC[C@H]1[C@H](OC)[C@@H](C)C(=O)N[C@H](C)[C@@H](O)c1ccccc1)OC)N(C)C(=O)[C@@H](NC(=O)[C@H](C(C)C)N(C)C(=O)OCc1ccc(NC(=O)[C@H](C)NC(=O)[C@@H](NC(=O)CCOCCNCCNc2ncc(-c3cc(C)cc(F)c3)c(N3CCC(N)CC3)c2-c2nc3ccc(Cl)cc3[nH]2)C(C)C)cc1C(=O)NCCN)C(C)C` [Compound 89]: the results for the EC50 in experiment [1] (read-out: hSST2 cAMP Avg EC50), in experiment [2] (read-out: Internalization EC50) and in experiment [3] (2 h) were 0.71 nM, 66 nM and 60 nM, respectively.
On the same counts, the results for `CC[C@H](C)[C@@H]([C@@H](CC(=O)N1CCC[C@H]1[C@H](OC)[C@@H](C)C(=O)N[C@H](C)[C@@H](O)c1ccccc1)OC)N(C)C(=O)[C@@H](NC(=O)[C@H](C(C)C)N(C)C(=O)OCc1ccc(NC(=O)[C@H](CCCNC(N)=O)NC(=O)[C@@H](NC(=O)CCOCCOCCOCCOCCC(=O)NCCNc2ncc(-c3cc(C)cc(F)c3)c(N3CCC(O)CC3)c2-c2nc3ccc(Cl)cc3[nH]2)C(C)C)cc1)C(C)C` [Compound 31] are 1700 nM, over 1000 nM and 1060 nM.
For the molecule `CC[C@H](C)[C@@H]([C@@H](CC(=O)N1CCC[C@H]1[C@H](OC)[C@@H](C)C(=O)N[C@H](C)[C@@H](O)c1ccccc1)OC)N(C)C(=O)[C@@H](NC(=O)[C@H](C(C)C)N(C)C(=O)OCc1ccc(NC(=O)[C@H](CCCNC(N)=O)NC(=O)[C@@H](NC(=O)CCC(=O)NCCNc2ncc(-c3cc(C)cc(F)c3)c(N3CCC(N)CC3)c2-c2nc3ccc(Cl)cc3[nH]2)C(C)C)c(O[C@@H]2O[C@H](C(=O)O)[C@@H](O)[C@H](O)[C@H]2O)c1)C(C)C` [Compound 75], the concentration for a half-maximal effect (EC50) in experiment [1] (read-out: hSST2 cAMP Avg EC50) stood at 0.54 nM; in experiment [2] (read-out: Internalization EC50), 8.9 nM; in experiment [3] (2 h), 16.5 nM.

Source of the values: patent US12134610B2, “Somatostatin subtype-2 receptor (SST2R) targeted therapeutics and uses thereof” (priority 2022, dated 2024).
